Test results from ChEMBL document CHEMBL5214997, “6-Thioguanosine Monophosphate Prodrugs Display Enhanced Performance against Thiopurine-Resistant Leukemia and Breast Cancer Cells” (J Med Chem, 2022).
Activity calls are given as the source filed them. The rule behind the calls is not given here.

Assays:
[1] = system: HEK-293T; test: Antiproliferative activity against HEK293T cells with high HGPRT expression incubated for 48 hrs by CellTiter-Glo2 assay; format: functional, cell-based; conditions: Homo sapiens
[2] = system: K562; test: Antiproliferative activity against human K562 cells with low HGPRT expression incubated for 48 hrs by CellTiter-Glo2 assay; format: functional, cell-based; conditions: K562, 48 h
[3] = system: THP-1; test: Antiproliferative activity against human THP-1 cells with low HGPRT expression incubated for 48 hrs by CellTiter-Glo2 assay; format: functional, cell-based; conditions: THP-1, 48 h
[4] = system: SK-BR-3; test: Antiproliferative activity against human SK-BR-3 cells with low HGPRT expression incubated for 48 hrs by CellTiter-Glo2 assay; format: functional, cell-based; conditions: SK-BR-3, 48 h
[5] = system: HEK-293T; test: Effect on p21 mRNA expression in HEK293T cells assessed as increase in labeling efficiency at 100 uM incubated for 16 hrs and measured by TUC-Seq DUAL method; format: functional, cell-based; conditions: Homo sapiens
[6] = system: K562; test: Antiproliferative activity against human K562 cells with low HGPRT expression assessed as cell survival at 1000 uM and incubated for 48 hrs by CellTiter-Glo2 assay; format: functional; conditions: read-out: Activity
[7] = system: SK-BR-3; test: Drug resistance of human SK-BR-3 cells assessed as percentage of resistant cells at 1 mM; format: functional
[8] = system: K562; test: Downregulation of HGPRT mRNA expression in human K562 cells at 1 mM measured after 48 hrs by qPCR analysis; format: functional, cell-based
[9] = system: SK-BR-3; test: Downregulation of HGPRT mRNA expression in human SK-BR-3 cells at 1 mM measured after 48 hrs by qPCR analysis; format: functional, cell-based
[10] = Effect on CCNT1 mRNA expression in HEK293T cells assessed as percentage of labeled transcripts at 100 uM incubated for 2 hrs and measured by TUC-Seq DUAL method; format: functional, Homo sapiens, HEK-293T
[11] = Effect on p21 mRNA expression in HEK293T cells assessed as percentage of labeled transcripts at 100 uM incubated for 2 hrs and measured by TUC-Seq DUAL method; format: functional, Homo sapiens, HEK-293T
[12] = Effect on ND1 mRNA expression in HEK293T cells assessed as percentage of labeled transcripts at 100 uM incubated for 2 hrs and measured by TUC-Seq DUAL method; format: functional, Homo sapiens, HEK-293T

Row | Structure (SMILES) | EC50 [1] [µM] | EC50 [2] [µM] | EC50 [3] [µM] | EC50 [4] [µM] | Activity [5] | viability at 1000 µM [6] [%] | Activity [7] [%] | Activity [8] | Activity [9] | Activity [10] [%] | Activity [11] [%] | Activity [12] [%]
1 | CC(C)(C)C(=O)SCCOP(=O)(OCCSC(=O)C(C)(C)C)OC[C@H]1O[C@@H](n2cnc3c(=S)[nH]c(N)nc32)[C@H](O)[C@@H]1O | 246 | 62 | 8.4 | – | – | – | – | – | – | – | – | –
2 | CC(=O)Oc1ccc(COP(=O)(O)OC[C@H]2O[C@@H](n3cnc4c(=S)[nH]c(N)nc43)[C@H](O)[C@@H]2O)cc1 | 6.9 | 2.3 | 0.67 | 201 | Active | – | – | – | – | – | – | –
3 | Nc1nc2[nH]cnc2c(=S)[nH]1 [THIOGUANINE] | 3.6 | 0.74 | 0.27 | – | – | 15 | 40 | Active | Active | – | – | –
4 | CCC(CC)COC(=O)[C@H](C)NP(=O)(OC[C@H]1O[C@@H](n2cnc3c(=S)[nH]c(N)nc32)[C@H](O)[C@@H]1O)Oc1ccccc1 (some centres not stated) | – | 92 | 33 | – | – | – | – | – | – | – | – | –
5 | Nc1nc2c(ncn2[C@@H]2O[C@H](COP3(=O)OCc4ccccc4O3)[C@@H](O)[C@H]2O)c(=S)[nH]1 (some centres not stated) | 14 | 7.2 | 1.4 | 25 | Active | – | – | – | – | – | – | –
6 | CC(=O)Oc1ccc(COP(=O)(OCc2ccc(OC(C)=O)cc2)OC[C@H]2O[C@@H](n3cnc4c(SCc5ccc(OC(C)=O)cc5)nc(N)nc43)[C@H](O)[C@@H]2O)cc1 | 6.7 | 2.6 | 0.34 | 3.5 | – | – | – | – | – | – | – | –
7 | Nc1nc(=S)c2ncn([C@@H]3O[C@H](CO)[C@@H](O)[C@H]3O)c2[nH]1 [THIOGUANOSINE] | 4.7 | 1.3 | 0.35 | – | – | – | – | – | – | 2.5 | 2.5 | 2.5
8 | Nc1nc2c(ncn2[C@@H]2O[C@H](COP3(=O)OCc4cc(Cl)ccc4O3)[C@@H](O)[C@H]2O)c(=S)[nH]1 (some centres not stated) | 15 | 5.6 | 0.4 | 42 | Active | – | – | – | – | – | – | –
